One assay addresses T1, human recombinant HDAC6 (Homo sapiens, UniProt Q9UBN7).
T1 construct: purchased Calbiochem Inc. 382180
T1 sequence (Q9UBN7 1-1215): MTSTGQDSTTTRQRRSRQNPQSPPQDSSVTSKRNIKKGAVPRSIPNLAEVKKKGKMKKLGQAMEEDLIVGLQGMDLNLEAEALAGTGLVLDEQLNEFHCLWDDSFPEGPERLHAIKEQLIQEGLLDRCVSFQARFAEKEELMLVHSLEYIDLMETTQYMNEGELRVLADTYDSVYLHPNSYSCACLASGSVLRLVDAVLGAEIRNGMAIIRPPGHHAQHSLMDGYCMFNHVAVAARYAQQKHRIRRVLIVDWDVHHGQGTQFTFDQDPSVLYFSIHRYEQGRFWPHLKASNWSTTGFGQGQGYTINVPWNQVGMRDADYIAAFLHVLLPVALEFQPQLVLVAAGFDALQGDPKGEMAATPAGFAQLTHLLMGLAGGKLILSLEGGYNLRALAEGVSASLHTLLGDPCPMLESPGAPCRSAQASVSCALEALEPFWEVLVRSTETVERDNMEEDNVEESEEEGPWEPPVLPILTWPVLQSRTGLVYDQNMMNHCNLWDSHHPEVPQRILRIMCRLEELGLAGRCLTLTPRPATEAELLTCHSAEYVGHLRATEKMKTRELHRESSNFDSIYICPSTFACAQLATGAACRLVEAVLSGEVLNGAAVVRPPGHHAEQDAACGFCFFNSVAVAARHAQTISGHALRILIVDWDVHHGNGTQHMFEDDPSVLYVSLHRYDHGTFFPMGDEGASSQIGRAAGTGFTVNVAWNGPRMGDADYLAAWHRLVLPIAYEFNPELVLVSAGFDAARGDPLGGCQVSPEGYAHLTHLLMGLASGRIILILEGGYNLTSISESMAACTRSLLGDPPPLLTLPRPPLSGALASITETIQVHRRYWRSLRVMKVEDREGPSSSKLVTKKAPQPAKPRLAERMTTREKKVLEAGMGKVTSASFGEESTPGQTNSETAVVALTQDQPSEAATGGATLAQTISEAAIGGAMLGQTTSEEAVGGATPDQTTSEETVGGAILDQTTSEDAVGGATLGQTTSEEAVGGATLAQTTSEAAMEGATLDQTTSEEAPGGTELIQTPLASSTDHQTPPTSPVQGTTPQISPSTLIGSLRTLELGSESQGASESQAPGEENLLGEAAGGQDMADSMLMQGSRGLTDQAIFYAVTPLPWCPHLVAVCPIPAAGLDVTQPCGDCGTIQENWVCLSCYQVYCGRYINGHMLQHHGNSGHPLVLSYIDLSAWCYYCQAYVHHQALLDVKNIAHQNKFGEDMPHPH
Nature of the assay: HDAC6 enzyme activity inhibition (HDAC Fluorimetric Drug Discovery Kit). The format is biochemical. In outline:
(§1)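 Fluorimetric deacetylase read-out. 5-fold compound dilutions; […] enzyme, 10 μM substrate; 30° C, 60 min; developer 30 min.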

Another assay deals with T2, human recombinant HDAC1 (Homo sapiens, UniProt Q13547).
T2 construct: purchased Enzo Life Science, Inc. BML-SE456
T2 sequence (Q13547 whole entry): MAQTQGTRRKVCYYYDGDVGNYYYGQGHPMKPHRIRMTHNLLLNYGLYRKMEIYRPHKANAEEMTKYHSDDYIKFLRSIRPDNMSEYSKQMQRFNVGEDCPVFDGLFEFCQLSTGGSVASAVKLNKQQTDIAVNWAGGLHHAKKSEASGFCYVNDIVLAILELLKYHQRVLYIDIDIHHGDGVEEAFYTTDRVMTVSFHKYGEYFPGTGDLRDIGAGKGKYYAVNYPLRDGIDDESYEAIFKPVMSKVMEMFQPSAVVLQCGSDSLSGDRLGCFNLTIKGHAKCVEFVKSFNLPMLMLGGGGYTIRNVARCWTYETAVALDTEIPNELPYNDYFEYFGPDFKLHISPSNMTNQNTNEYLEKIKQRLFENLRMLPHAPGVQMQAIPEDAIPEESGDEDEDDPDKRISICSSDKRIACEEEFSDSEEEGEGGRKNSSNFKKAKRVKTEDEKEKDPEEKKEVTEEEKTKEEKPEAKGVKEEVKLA
The assay is described as follows: HDAC1 enzyme activity inhibition (HDAC Fluorimetric Drug Discovery Kit). Format: biochemical. Particulars: read-out: HDAC1. In outline: as §1

Where [1] appears, read: human recombinant HDAC6, IC50 calculated with GraphPad Prism.
[2] abbreviates: human recombinant HDAC1, IC50 calculated with GraphPad Prism.
Where [3] appears, read: human recombinant HDAC6, same protocol as HDAC1.
Where [4] appears, read: human recombinant HDAC1, Fluor de Lys substrate, 30° C. 60 minutes.

The structures appear in SMILES notation. Read-outs that look alike come from different tables or passages of the source. Where only a bound is given, the exact number is not on record here.

As to `FC(F)c1nnc(-c2ccc(Cn3cc(C4CCCN(C5COC5)C4)nn3)nc2)o1` (stereo not drawn) [Compound 4003], the “HDAC6 selectivity (fold)” value on human recombinant HDAC6 (HDAC1 IC50 / HDAC6 IC50) is given as 103 fold. For the same compound, the IC50 is 484 nM at human recombinant HDAC6 (setting [1]) and above 50000 nM on human recombinant HDAC1 (setting [2]).
In the same order, the values of `Fc1ccc(N2CCN(C3COC3)CC2)cc1-c1cn(Cc2ccc(-c3nnc(C(F)F)o3)cc2)nn1` [Compound 4455, 2-(difluoromethyl)-5-(4-((4-(2-fluoro-5-(4-(oxetan-3-yl)piperazin-1-yl)phenyl)-1H-1,2,3-triazol-1-yl)methyl)phenyl)-1,3,4-oxadiazole] are 520 fold, 96.1 nM and above 50000 nM.
Take `CN1CCN(c2ccc(-c3cn(Cc4ccc(-c5nnc(C(F)F)o5)cc4F)nn3)cn2)CC1` [Compound 16789, 2-(difluoromethyl)-5-(3-fluoro-4-((4-(6-(4-methylpiperazin-1-yl)pyridin-3-yl)-1H-1,2,3-triazol-1-yl)methyl)phenyl)-1,3,4-oxadiazole]: the “HDAC6 selectivity (fold)” value on human recombinant HDAC6 (HDAC6 over HDAC1) came out at 628 fold. For the same compound, the IC50 is 79.5 nM on human recombinant HDAC6 (setting [3]) and above 50000 nM on human recombinant HDAC1 (setting [4]).
In the case of `Fc1cc(-c2nnc(C(F)F)o2)ccc1Cn1cc(-c2cccc3c2CN(C2COC2)C3)nn1` [Compound 4538, 2-(difluoromethyl)-5-(3-fluoro-4-((4-(2-(oxetan-3-yl)isoindolin-4-yl)-1H-1,2,3-triazol-1-yl)methyl)phenyl)-1,3,4-oxadiazole], the “HDAC6 selectivity (fold)” value on human recombinant HDAC6 (HDAC6 over HDAC1) came to 539 fold. Further, the IC50 was 92.7 nM at human recombinant HDAC6 (setting [3]) and above 50000 nM on human recombinant HDAC1 (setting [4]).
In the same order, the values of `Fc1cc(-c2nnc(C(F)F)o2)ccc1Cn1cc(-c2cccc(N3CCN(C4CCC4)CC3)c2F)nn1` [Compound 4579, 2-(4-((4-(3-(4-cyclobutylpiperazin-1-yl)-2-fluorophenyl)-1H-1,2,3-triazol-1-yl)methyl)-3-fluorophenyl)-5-(difluoromethyl)-1,3,4-oxadiazole] are 1256 fold, 39.8 nM and above 50000 nM.
Take `CC(C)N1CC(c2cccc(-c3cn(Cc4ccc(-c5nnc(C(F)F)o5)cc4F)nn3)c2)C1` [Compound 4461, 2-(difluoromethyl)-5-(3-fluoro-4-((4-(3-(1-isopropylazetidin-3-yl)phenyl)-1H-1,2,3-triazol-1-yl)methyl)phenyl)-1,3,4-oxadiazole]: the “HDAC6 selectivity (fold)” value at human recombinant HDAC6 (HDAC1 IC50 / HDAC6 IC50) is listed as 759 fold. Moreover, the IC50 on human recombinant HDAC6 (setting [1]) is 65.8 nM; at human recombinant HDAC1 (setting [2]), above 50000 nM.
In the same order, the values of `CC(C)(C)OC(=O)NC(C)(C)C(=O)Nc1cccc(-c2cn(Cc3ccc(-c4nnc(C(F)F)o4)cn3)nn2)c1` [Compound 4495] are 2262 fold, 22.1 nM and above 50000 nM.
Take `CCCN1CCC(Nc2ccc(F)c(-c3cn(Cc4ccc(-c5nnc(C(F)F)o5)cc4F)nn3)c2)CC1` [Compound 4438, N-(3-(1-(4-(5-(difluoromethyl)-1,3,4-oxadiazol-2-yl)-2-fluorobenzyl)-1H-1,2,3-triazol-4-yl)-4-fluorophenyl)-1-propylpiperidin-4-amine]: at human recombinant HDAC6 (HDAC1 IC50 / HDAC6 IC50), the “HDAC6 selectivity (fold)” value came out at 934 fold. Besides, the IC50 was 53.5 nM on human recombinant HDAC6 (setting [1]) and above 50000 nM on human recombinant HDAC1 (setting [2]).
With `CN(C(=O)C(C)(C)C)c1cccc(-c2cn(Cc3ccc(-c4nnc(C(F)F)o4)cn3)nn2)c1` [Compound 3889, N-(3-(1-((5-(5-(difluoromethyl)-1,3,4-oxadiazol-2-yl)pyridin-2-yl)methyl)-1H-1,2,3-triazol-4-yl)phenyl)-N-methylpivalamide], the “HDAC6 selectivity (fold)” value at human recombinant HDAC6 (HDAC1 IC50 / HDAC6 IC50) is listed as 1210 fold. Moreover, the figures for the IC50 on human recombinant HDAC6 (setting [1]) and at human recombinant HDAC1 (setting [2]) were 41.3 nM and above 50000 nM, respectively.
Consider `CN(C)Cc1ccc(-c2cn(Cc3ccc(-c4nnc(C(F)F)o4)cc3F)nn2)cc1Cl` [Compound 18711, 1-(2-chloro-4-(1-(4-(5-(difluoromethyl)-1,3,4-oxadiazol-2-yl)-2-fluorobenzyl)-1H-1,2,3-triazol-4-yl)phenyl)-N,N-dimethylmethanamine], for which the “HDAC6 selectivity (fold)” value on human recombinant HDAC6 (HDAC6 over HDAC1) is recorded as 524 fold. The IC50 on human recombinant HDAC6 (setting [3]) was 95.4 nM; on human recombinant HDAC1 (setting [4]), above 50000 nM.

Source of the values: patent US20230257372A1 (CHONG KUN DANG PHARMACEUTICAL CORP., priority 2020, published 2023).
